This note sets out measurements from patent US20190375778A1, “ADENOSINE DERIVATIVES FOR USE IN THE TREATMENT OF CANCER” (NuCana plc, priority 2016, published 2019).

One may read the IC50 as the concentration that inhibits the measured activity by half.

One assay has as its system Murine leukemia L1210. In words: Cell proliferation (Coulter count) assay, L1210. It counts as cell-based. Conditions: Mus musculus, 48 h, read-out: absolute IC50, L1210. From the text: (§1) Lovo: cell line derived from a metastatic site in a patient with colon cancer MCF7: human oestrogen sensitive mammary epithelial cell line PC3: human prostate cancer cell line A549: cancerous lung tissue derived cells L1210: lymphoblast cell line derived from a mouse with lymphocytic leukaemia FM3A: mammary carcinoma murine cells CEM: human T-lymphoblasts, derived from the blood of a patient with acute lymphoblastic leukaemia HeLa: epithelial cells from a patient with cervical adenocarcinoma
(§2) Murine leukemia L1210, human T-lymphocyte CEM, and human cervix carcinoma HeLa cells were obtained from the American Type Culture Collection (ATCC) (Rockville, Md.). All cells were maintained in Dulbecco's modified Eagle's medium (DMEM) (Invitrogen, Carlsbad, Calif.) with 10% fetal bovine serum (FBS) (Biochrom AG, Berlin, Germany), 10 mM Hepes, and 1 mM sodiumpyruvate (Invitrogen). Cells were grown at 37° C. in a humidified incubator with a gas phase of 5% CO2. Monolayer cells (HeLa and […]) were seeded in 96-well microtiter plates (Nunc, Roskilde, Denmark) at 10 000 cells/well. After 24 h, an equal volume of fresh medium containing the test compounds was added. On day 5, cells were trypsinized and counted in a Coulter counter (Analis, Suarlee, Belgium). Suspension cells (L1210, CEM) were seeded in 96-well microtiter plates (Nunc) at 60 000 cells/well in the presence of a given amount of the test compounds. The cells were allowed to proliferate for 48 h (L1210) or 72 h (CEM) and were then counted in a Coulter counter. The 50% inhibitory concentration (IC50) was defined as the compound concentration required to reduce cell proliferation by 50%. The cytostatic activity of the compounds was determined after 3 days, as outlined above.

The test system of the next assay is human T-lymphocyte CEM. In words: Cell proliferation (Coulter count) assay, CEM. It counts as cell-based. Conditions: 72 h, read-out: absolute IC50, CEM.
Text: as §1, §2

The subject of assay [1] is human cervix carcinoma HeLa cells. The assay is described as follows: Cell proliferation (Coulter count) assay, HeLa. Type of assay: cell-based. Conditions: 120 h, cell count on day 5, read-out: absolute IC50, HeLa.
Text: as §1, §2

The subject of a further assay is CCRFCEM. The assay is described as follows: CellTiterGlo viability assay, CCRFCEM. It counts as cell-based. Conditions: Homo sapiens, CCRF-CEM, 72 h, read-out: IC50 CCRFCEM. On the procedure: (§3) In vitro viability assay were performed to assess the effects of compounds on cell viability in selected cell lines over ˜72 hrs using the CellTiterGlo (CTG, Promega-G7573) assay. The tests were performed in duplicates with treatment of compounds at 9 points, 3.16 folds titration in 96 well plates over ˜72 hrs. The compound starting concentrations were 198 μM. Cell viability assay using CellTiterGlo in 96-well plate were performed. Compound treatment 72 hrs, standard growth conditions, duplicates. Compounds were dissolved to 40 mM with thawed […]. Compounds were serially diluted at 3.16 fold in thawed DMSO, and warmed to 37° C. before being dissolved in media (2 μl+200 μl). After compounds were dissolved in media, media containing compounds were warmed to 37° C. in incubator and then compounds in media were added to cell plates (50 μl+50 μl) in duplicates. The compounds' final concentrations were from […] to 19.9 nM. All compound solubilities were checked and recorded again, then the plates were transferred to CO2 tissue culture incubator immediately and incubated for 3 days. DMSO final concentration is 0.5%.

For another assay, the system named is HEL92.1.7. The assay is described as follows: CellTiterGlo viability assay, HEL92.1.7. Type of assay: cell-based. To be noted: Homo sapiens, HEL 92.1.7, 72 h, read-out: IC50 HEL92.1.7. On the procedure:
as §3
(In general: In ATP-based viability assays light output follows the ATP content of the culture.)

Another assay deals with KG-1. The assay is described as follows: CellTiterGlo viability assay, KG-1. Type of assay: cell-based. To be noted: Homo sapiens, KG-1, 72 h, read-out: IC50 KG-1. As to the method:
as §3

Another assay concerns K562. The assay is described as follows: CellTiterGlo viability assay, K562. Type of assay: cell-based. Conditions: Homo sapiens, K562, 72 h, read-out: IC50 K562. As to the method:
as §3

A further assay concerns NCI-H929. In words: CellTiterGlo viability assay, NCI-H929. Type of assay: cell-based. To be noted: Homo sapiens, NCI-H929, 72 h, read-out: IC50 NCI-H929. On the procedure: as §3
Another assay concerns MV4-11. The assay is described as follows: CellTiterGlo viability assay, MV4-11. It counts as cell-based. Conditions: Homo sapiens, MV4-11, 72 h, read-out: IC50 MV4-11. As to the method: as §3
The test system of the next assay is RL. The assay is described as follows: CellTiterGlo viability assay, RL. It counts as cell-based. To be noted: Homo sapiens, RL, 72 h, read-out: IC50 RL. As to the method:
as §3

In another assay the test system is RPMI-8226. In words: CellTiterGlo viability assay, RPMI-8226. Conditions: Homo sapiens, RPMI-8226, 72 h, read-out: IC50 RPMI-8226. It counts as cell-based, Human. On the procedure: as §3
Another assay concerns HL-60. The assay is described as follows: CellTiterGlo viability assay, HL-60. Type of assay: cell-based. To be noted: Homo sapiens, HL-60, 72 h, read-out: IC50 HL-60. On the procedure:
as §3

Assay [2] concerns KG1a leukaemic stem cell compartment (Lin−/CD34+/CD38−/CD123+). In words: Leukaemic stem cell compartment in KG1a. Type of assay: cell-based. To be noted: for Change relative to control (%): % LSC compartment versus the series' control; for KG-1a (CD34+/CD38−/CD123+) % compartment: LSC as percentage of viable cells left, 72 hrs. As to the method: A further comparative analysis of the toxicity of compounds in the KG1a cell line over an extended dose range was carried out, and the relative effect assessed of the compounds on the leukaemic stem cell compartment within the KG1a cell line, across the entire dose range. Thus, experimental tests were performed on certain compounds of the present invention to assess their ability to target cancer stem cells in a leukaemic cell line. The acute myeloid leukaemia (AML) cell line, KG1a, was employed to assess the relative effect of compounds on the stem cell compartment. The KG1a cell line was selected because it manifests a minor stem cell-like compartment with a distinct immunophenotype (Lin^−/CD34^+/CD38^−/CD123^+).
Cells of the KG1a cell line were maintained in RPMI medium (Invitrogen, Paisley, UK) supplemented with 100 units/ml penicillin, 100 μg/ml streptomycin and 20% foetal calf serum. Cells were subsequently aliquoted (10^5 cells/100 μl) into 96-well plates and were incubated at 37° C. in a humidified 5% carbon dioxide atmosphere for 72 hrs in the presence of nucleoside analogues and their respective nucleotide analogues (known as ProTides) at concentrations that were experimentally determined for each series of compounds. In addition, control cultures were carried out to which no drug was added. Cells were subsequently harvested by centrifugation and were analyzed by flow cytometry using the Annexin V assay.
KG1a cells were cultured for 72 hrs in the presence of a wide range of concentrations of each compound assayed. Cells were then harvested and labelled with a cocktail of anti-lineage antibodies (PE-cy7), anti-CD34 (FITC), anti-CD38 (PE) and anti-CD123 (PERCP cy5). The sub-population expressing a leukaemic stem cell (LSC) phenotype were subsequently identified and were expressed as a percentage of all viable cells left in the culture. The percentages of stem cells remaining were then plotted on a dose-response graph and the effects of the compounds were compared with 8-chloroadenosine.
The data obtained in these experiments were evaluated using one way ANOVA. All data was confirmed as Gaussian or a Gaussian approximation using the omnibus K2 test. LD50 values were calculated from the non-linear regression and line of best-fit analysis of the sigmoidal dose-response curves. All statistical analyses were performed using Graphpad Prism 6.0 software (Graphpad Software Inc., San Diego, Calif.).

`CC(C)C[C@H](NP(=O)(OC[C@H]1O[C@@H](n2c(Cl)nc3c(N)ncnc32)C(O)C1O)Oc1cccc2ccccc12)C(=O)OC1CCCCC1` (stereo partly drawn) [J, 5′-([(Cyclohexyloxy-L-leucin-N-yl)-naphth-1-yl]-phosphatyl) 8-chloroadenosine]: the half-maximal inhibitory concentration (IC50) (in the assay on Murine leukemia L1210; in the assay with human T-lymphocyte CEM; in assay [1]) was 5 to 15 µM each time.
In the case of `CCOC(=O)[C@H](Cc1ccccc1)NP(=O)(OC[C@H]1O[C@@H](n2c(Cl)nc3c(N)ncnc32)C(O)C1O)Oc1cccc2ccccc12` (stereo partly drawn) [S, 5′-([(Ethyloxy-L-phenylalanin-N-yl)-naphth-1-yl]-phosphatyl) 8-chloroadenosine], the IC50 in the assay with Murine leukemia L1210 fell in the range of 15 to 100 µM; with human T-lymphocyte CEM it was 5 to 15 µM; in assay [1], 0.1 to 5 µM.
For `C[C@H](NP(=O)(OC[C@H]1O[C@@H](n2c(Cl)nc3c(N)ncnc32)C(O)C1O)Oc1cccc2ccccc12)C(=O)OC1CCCCC1` (stereo partly drawn) [G, 5′-([(Cyclohexyloxy-L-alanin-N-yl)-naphth-1-yl]-phosphatyl) 8-chloroadenosine] the same measures were 15 to 100 µM, 5 to 15 µM and 0.1 to 5 µM.
For `CCOC(=O)[C@H](C)NP(=O)(OC[C@H]1O[C@@H](n2c(Cl)nc3c(N)ncnc32)C(O)C1O)Oc1cccc2ccccc12` (stereo partly drawn) [F, 5′-([(Ethyloxy-L-alanin-N-yl)-naphth-1-yl]-phosphatyl) 8-chloroadenosine] the same measures were 15 to 100 µM, 5 to 15 µM and 0.1 to 5 µM.
As to `Nc1ncnc2c1nc(Cl)n2[C@@H]1O[C@H](COP(=O)(NCC(=O)OC2CCCCC2)Oc2cccc3ccccc23)C(O)C1O` (stereo partly shown) [M, 5′-([(Cyclohexyloxy-glycin-N-yl)-naphth-1-yl]-phosphatyl) 8-chloroadenosine], the IC50 (in the assay with Murine leukemia L1210; in the assay on human T-lymphocyte CEM; in [1]) was 15 to 100 µM in each case.
Regarding `CCOC(=O)CNP(=O)(OC[C@H]1O[C@@H](n2c(Cl)nc3c(N)ncnc32)C(O)C1O)Oc1cccc2ccccc12` (stereo partly shown) [N, 5′-([(ethyloxy-glycin-N-yl)-naphth-1-yl]-phosphatyl) 8-chloroadenosine], the IC50 was in the range of 15 to 100 µM with Murine leukemia L1210, 15 to 100 µM in the assay on human T-lymphocyte CEM and 0.1 to 5 µM in assay [1].
Turning to `Nc1ncnc2c1nc(Cl)n2[C@@H]1O[C@H](COP(=O)(N[C@@H](Cc2ccccc2)C(=O)OC2CCCCC2)Oc2cccc3ccccc23)C(O)C1O` (stereo partly drawn) [R, 5′-([(Cyclohexyloxy-L-phenylalanin-N-yl)-naphth-1-yl]-phosphatyl) 8-chloroadenosine], the figures for the IC50 (in the assay with Murine leukemia L1210; with human T-lymphocyte CEM; in assay [1]) were 5 to 15 µM, 5 to 15 µM and 0.1 to 5 µM, respectively.
As for `Nc1ncnc2c1nc(Cl)n2[C@@H]1O[C@H](COP(=O)(N[C@@H](Cc2ccccc2)C(=O)OCc2ccccc2)Oc2cccc3ccccc23)C(O)C1O` (stereo partly drawn) [P, 5′-([(Benzyloxy-L-phenylalanin-N-yl)-naphth-1-yl]-phosphatyl) 8-chloroadenosine], the IC50 with Murine leukemia L1210 fell in the range of 5 to 15 µM; with human T-lymphocyte CEM, 0.1 to 5 µM; in [1], 0.1 to 5 µM; with CCRFCEM, 5 to 15 µM; with HEL92.1.7, 0.1 to 5 µM; in the assay with KG-1 it was 5 to 15 µM. Besides, the IC50 fell in the range of 0.1 to 5 µM in the assay with K562; 0.1 to 5 µM with NCI-H929; 0.1 to 5 µM with MV4-11; 5 to 15 µM with RL; 0.1 to 5 µM in the assay on RPMI-8226; 0.1 to 5 µM in the assay on HL-60.
In the case of `CCOC(=O)[C@H](CC(C)C)NP(=O)(OC[C@H]1O[C@@H](n2c(Cl)nc3c(N)ncnc32)C(O)C1O)Oc1cccc2ccccc12` (stereo partly drawn) [K, 5′-([(ethyloxy-L-leucin-N-yl)-naphth-1-yl]-phosphatyl) 8-chloroadenosine], the figures for the IC50 (in the assay with Murine leukemia L1210; in the assay on human T-lymphocyte CEM; in [1]) were 15 to 100 µM, 5 to 15 µM and 0.1 to 5 µM, respectively.
Turning to `Nc1nc(Cl)nc2c1ncn2[C@@H]1O[C@H](CO)[C@@H](O)[C@@H]1F` [Clofarabine], in assay [2], the “Change relative to control (%)” value was −0.2% and the “KG-1a (CD34+/CD38−/CD123+) % compartment” value amounted to 3.3%.
In the case of `C[C@H](NP(=O)(N[C@@H](C)C(=O)OCc1ccccc1)OC[C@H]1O[C@@H](n2c(Cl)nc3c(N)ncnc32)C(O)C1O)C(=O)OCc1ccccc1` (stereo partly drawn) [AB, 8-Chloroadenosine 5′-O-bis(benzyloxy-L-alanin-N-yl) phosphate], the IC50 is 5 to 15 µM with Murine leukemia L1210, 0.1 to 5 µM with human T-lymphocyte CEM and 0.1 to 5 µM in assay [1].
Regarding `CCCCCOC(=O)[C@H](CC(C)C)NP(=O)(OC[C@H]1O[C@@H](n2c(Cl)nc3c(N)ncnc32)C(O)C1O)Oc1cccc2ccccc12` (stereo partly drawn) [I, 5′-([(Pent-1-yloxy-L-leucin-N-yl)-naphth-1-yl]-phosphatyl) 8-chloroadenosine], the concentration for half-maximal inhibition (IC50) with Murine leukemia L1210 was 5 to 15 µM; in the assay with human T-lymphocyte CEM, 5 to 15 µM; in assay [1], 0.1 to 5 µM.
In the case of `Nc1nc(Cl)nc2c1ncn2[C@H]1C[C@H](O)[C@@H](CO)O1` [Cladribine], in [2], the “Change relative to control (%)” value is recorded as “+2.0%” and the “KG-1a (CD34+/CD38−/CD123+) % compartment” value is on record as 6.0%.
